From patent publication US10583119B2, “Compounds, compositions and methods for making the same” (Signum Biosciences, Inc., priority 2008, dated 2020) come the findings set out here.

As usually defined, the IC50 is the concentration that inhibits the measured activity by half.

The target of data set [1] is T1, PP2A (Homo sapiens, UniProt P67775).
T1 construct: made in house
Put plainly: Phosphatase activity of PP2A using pNPP as substrate. Particulars: un-methylated PP2A, non-protein substrate pNPP, absence of ME and MT. The format is biochemical. The procedure: PP2A (10-200 nM) and pNPP (5-10 mM, Sigma) were mixed into 96-well plate (Fisher Scientific Inc.) in 50 μL of the buffer required. Reactions were performed at room temperature, and fully stopped by adding equal volume of 0.1 M EDTA. Production of p-nitrophenol […] was quantified by absorbance of reaction mixtures at 405 nm using the VMax® microplate reader (Molecular Devices).

Another data set has as its system phosphorylated Tau. The experiment in a line: Phosphorylated tau in vivo at four weeks (pS396 Western blot of brain). Particulars: 0.1% in chow, phospho-Serine 396. Also noted: species or system mice. The procedure: Swiss Webster mice (9-12 weeks old) were fed ad libitum, either standard rodent chow (Control), or rodent chow formulated with 0.1 g Compound I-63 per 100 g chow (0.1% Compound I-63) or 0.1 g Compound I-62 per 100 g chow (0.1% Compound I-62); water was changed weekly. Mice were housed at 23° C., on a 12 hour light and dark cycle, with 6 mice per cage. At 4 weeks, six mice from the Control, 0.1% Compound I-63 and 0.1% Compound I-62 groups were sacrificed by cervical dislocation, brains removed, snap-frozen in liquid nitrogen, and stored at −80° C. Brains were homogenized in 350 pi of buffer containing 20 mM MOPS-Na, pH 7.2, 1 mM EDTA/DTT, 0.5 mg/L of aprotinin, leupeptin and pepstatin, 100 nM okadaic acid, and clarified by centrifugation (14000 rpm, 10 min, 4° C.). Supernatant protein concentrations were measured by the Bradford method, 4 volumes of the supernatant and 1 volume of 5×SDS sample buffer were mixed and boiled for 2 minutes. Boiled homogenate ([…]) were loaded on 12% polyacrylamide gels, and transferred to nitrocellulose membranes. […] Protein bands were detected with the ECL Plus reagent (GE Healthcare) and blots scanned on a Molecular Dynamics Storm Imager. […]

Data set [2] concerns the target T2, protein phosphatase 2A specific methyltransferase (MTase) (Homo sapiens, UniProt Q9UIC8).
T2 construct: His; made in house
The experiment in a line: PP2A methylation in 96-well plate format (methyltransferase activity). Particulars: purified PP2A, MTase and [3H]-SAM; read-out: MT (IC50). The format is biochemical. The protocol:
Purified PP2A, MTase and [^3H]-SAM, were incubated in reaction buffer at 37° C. At the end of the reaction, mixture was added onto the membranes of 96-well filter plate (Multiscreen™, Millipore). The membranes were then pre-wetted with 70% ethanol (50 μL/well) and then subsequently washed with water (2×200 μL/well). The reaction in each well was terminated and the proteins (5 μL-20 μL) were precipitated by adding 25% ice-cold TCA. The plate was kept on ice for 30 minutes to ensure completion of protein precipitation. Excess of the free SAM was then removed by washing with 5% cold TCA ([…]) and 70% cold ethanol (2×100 μL/well). Membranes were air-dried, radioactivity in each well was counted by TopCount^NXT scintillation counter (Packard) with 25 μL/well of Microsinct™ 20 (PerkinElmer).

For data set [3], the target named is T1, PP2A. The experiment in a line: Phosphatase activity of PP2A using phosphorylase a as substrate. The format is biochemical. Particulars: un-methylated PP2A, protein substrate phosphorylase a, absence of ME and MT. The procedure: After the reaction, proteins were precipitated by 50% (NH4)2SO4 (final concentration) twice, and collected by centrifugation. The pellet was re-dissolved and dialyzed in a buffer containing 50 mM Tris-HCl (pH6.9) and ImM DTT for 2×2 L at 4° C. overnight. Phosphorylase a (phospho-phosphorylase b) crystallized during the dialysis. The dialysate was centrifuged 14,000 r.p.m at 4° C. for 30 minutes, the supernatant was removed and purified ^32P-labelled phosphorylase a was re-dissolved in +50% glycerol, and stored at −20° C.
To measure PP2A's phosphatase activity, PP2A (5-20 nM) was incubated with phosphorylase a (5-10 μM) at 37° C. 10% TCA (final concentration) and was added to the reaction to precipitate proteins. Supernatant that contains free ^32P-phosphate group was added into scintillation counting solution (Ecoscint, National Diagnostics), and counted by scintillation counter (LS 6000SE, Beckman).

The target of data set [4] is T3, protein phosphatase specific protein methylesterase (MEase) (Homo sapiens, UniProt Q9Y570).
T3 construct: made in house
T3 sequence (Q9Y570 1-386): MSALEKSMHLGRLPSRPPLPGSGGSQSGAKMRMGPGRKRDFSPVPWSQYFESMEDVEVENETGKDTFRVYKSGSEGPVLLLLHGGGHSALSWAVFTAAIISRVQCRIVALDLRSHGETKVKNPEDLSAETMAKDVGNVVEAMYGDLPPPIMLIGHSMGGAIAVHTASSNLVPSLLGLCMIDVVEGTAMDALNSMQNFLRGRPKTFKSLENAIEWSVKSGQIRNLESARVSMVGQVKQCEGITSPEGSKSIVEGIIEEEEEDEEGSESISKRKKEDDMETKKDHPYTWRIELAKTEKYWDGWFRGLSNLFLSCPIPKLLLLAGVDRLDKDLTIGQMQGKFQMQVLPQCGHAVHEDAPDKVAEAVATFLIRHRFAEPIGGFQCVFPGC
The experiment in a line: PP2A demethylation with [3H]-SAM and purified proteins (methylesterase activity). Particulars: purified methylated PP2A and MEase; read-out: ME (IC50). The format is biochemical. The protocol: PP2A (methylated and unmethylated) were eluted with 1.6 mL of Buffer A containing 350 mM NaCl. Fractions (0.2 mL each) were collected and the radioactivity in each fraction was measured using the scintillation counter (LS 6000SE, Beckman). Fractions with highest radioactivity were containing purified methylated PP2A were pooled with a total volume of 0.6 mL-0.8 mL. Purified methylated PP2A (50 nM-100 nM) was incubated with MEase (5 nM-20 nM) in 20 μl-50 μl reaction at room temperature for 30 minutes. The reaction was terminated by adding TCA (2 μl-6 μl) to a final concentration of 10%. Released [^3H]-methanol in supernatants was counted with scintillation counter (LS 6000SE, Beckman).

Data set [5] relates to MPTP Mouse Model of Parkinson's Disease. The experiment in a line: MPTP-induced neurotoxicity in MPTP mouse model of Parkinson's disease (striatal tyrosine hydroxylase ELISA). The format is in vivo, C57BL/6J mice. Particulars: mice on control diets, relative to saline-injected mice. The source says:
MPTP (1-methyl-4-phenyl-1,2,3,6-tetrahydropyridine) is routinely used as a chemical agent that induces Parkinson's disease-like neurodegeneration in cellular and animal models. Both Parkinson's Disease and MPTP-induced neurotoxicity are associated with a number of different biomarkers including reduction of tyrosine hydroxylase levels and activity. Tyrosine hydroxylase is a key enzyme in the dopamine biosynthesis pathway as it is involved in the conversion of tyrosine to […]. Tyrosine hydroxylase activity is regulated by its phosphorylation status and PP2A is known to be involved in this regulation.
C57BL/6J mice, aged 2-3 months were fed ad libitum, either standard rodent chow (Control), or rodent chow formulated with 0.1 g Compound I-63, or 0.001 g Compound I-63 per 100 g chow (0.1% and 0.001% Compound I-63, respectively); water was changed weekly. Mice were housed at 23° C., on a 12 hour light and dark cycle, with 6 mice per cage. After 2 weeks, 8-12 mice each from the Control, 0.1% Compound 1-63 and 0.001% Compound I-63 groups were injected with either saline, or 10 mg/kg MPTP i.e., four times, every 2 hours, on the same day. Mice were then maintained on their respective feeds for another week, at which point they were sacrificed by cervical dislocation and brains dissected for biochemical analyses.
Striatal tyrosine hydroxylase (TH) content was measured by ELISA as follows. Ninety-six well microliter plates (Thermo Labsystems) were incubated overnight at 4° C. with monoclonal anti-TH antibody (1:500; Calbiochem) in 8 mM sodium phosphate, 2 mM potassium phosphate, and 0.14 M sodium chloride, pH 7.4 (PBS). Wells were washed four times with PBS and then blocked for 1 hour using 5% (w/v) Carnation (Nestle) nonfat dry milk in PBS. Striatal tissue samples were homogenized by sonication in PBS-0.5% Triton X-100 (PBST) with 0.25% (w/v) SDS. […] The reaction product was measured fluorometrically within the linear range of detection (excitation:emission ratio of 530:580 nm). […] Data were expressed as percent TH levels in MPTP-treated mice relative to saline-injected mice. […]

Another data set concerns Ob/Ob Mice. The experiment in a line: Non-fasted glucose levels in ob/ob mice. The format is in vivo. Particulars: homozygous obese mice, compound in diet for 14 days. The source says:
They are also hypometabolic and hypothermic. The obesity is characterized by an increase in both the number and the size of adipocytes. Although hyperphagia contributes to the obesity, homozygotes gain excess weight and deposit excess fat even when restricted to a diet sufficient for normal weight maintenance in lean mice. Mice heterozygous for the Lep^ob mutation appear like wild-type and are lean.
Forty-eight (48) B6.V-Lep^ob/J mice (00632, The Jackson Laboratory, JAX^6 mice), homozygous for the Lep^ob mutation and thirty six (36) controls B6.V-Lep^ob/J-lean, heterozygous for the Lep^ob mutation were used to study the effect of SIG1012 on non-fasted glucose levels. The mice were ear notched for identification and housed in individually and positively ventilated polycarbonate cages with HEPA filtered air at a density of 3 mice per cage. Bed-o-cob corn cob bedding was used and cages were changed every two weeks. The animal room was lighted entirely with artificial fluorescent lighting, with a controlled 12 h light/dark cycle (7 am to 7 pm light). The normal temperature and relative humidity ranges in the animal rooms were 22±4° C. and 50±15%, respectively. The animal rooms were set to have 15 air exchanges per hour. Filtered tap water, acidified to a pH of 2.8 to 3.2, and LabDiet AIN-76A was provided ad libitum.
Following acclimation, mice were assigned to groups A through G according to their body weight and genotype:
A Lean heterozygotes—B6.V-Lep^ob/J-lean Mice Fed Control Diet (AIN-76A);
B Lean heterozygotes—B6.V-Lep^ob/J-lean Mice Fed “Low” Compound I-63 (AIN-76A with 0.001% Compound I-63);
C Lean heterozygotes—B6.V-Lep^ob/J-lean Mice Fed “Medium” Compound I-63 (AIN-76A with 0.1% Compound I-63);
D Obese homozygotes—B6. V-Lep^ob/J Mice Fed Control Diet (AIN-76A);
E Obese homozygotes—B6N-Lep^ob/J Mice Fed “Low” Compound I-63 (AIN-76A with 0.001% Compound I-63); […]
Mice from Groups A through G were maintained on the respective diet for 14 days and blood glucose levels were measured weekly.

A value given as a limit tells only on which side of the number the result lay.

T1 sequence (P67775 whole entry): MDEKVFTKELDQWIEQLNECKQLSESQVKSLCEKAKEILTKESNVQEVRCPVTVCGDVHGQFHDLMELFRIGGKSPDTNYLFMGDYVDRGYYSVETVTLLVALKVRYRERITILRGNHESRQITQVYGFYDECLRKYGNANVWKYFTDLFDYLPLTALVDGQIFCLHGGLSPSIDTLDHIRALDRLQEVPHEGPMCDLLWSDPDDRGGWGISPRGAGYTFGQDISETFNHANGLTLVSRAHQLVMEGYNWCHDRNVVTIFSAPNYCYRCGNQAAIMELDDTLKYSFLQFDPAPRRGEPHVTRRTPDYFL
T1 sequence (P30153 whole entry partner): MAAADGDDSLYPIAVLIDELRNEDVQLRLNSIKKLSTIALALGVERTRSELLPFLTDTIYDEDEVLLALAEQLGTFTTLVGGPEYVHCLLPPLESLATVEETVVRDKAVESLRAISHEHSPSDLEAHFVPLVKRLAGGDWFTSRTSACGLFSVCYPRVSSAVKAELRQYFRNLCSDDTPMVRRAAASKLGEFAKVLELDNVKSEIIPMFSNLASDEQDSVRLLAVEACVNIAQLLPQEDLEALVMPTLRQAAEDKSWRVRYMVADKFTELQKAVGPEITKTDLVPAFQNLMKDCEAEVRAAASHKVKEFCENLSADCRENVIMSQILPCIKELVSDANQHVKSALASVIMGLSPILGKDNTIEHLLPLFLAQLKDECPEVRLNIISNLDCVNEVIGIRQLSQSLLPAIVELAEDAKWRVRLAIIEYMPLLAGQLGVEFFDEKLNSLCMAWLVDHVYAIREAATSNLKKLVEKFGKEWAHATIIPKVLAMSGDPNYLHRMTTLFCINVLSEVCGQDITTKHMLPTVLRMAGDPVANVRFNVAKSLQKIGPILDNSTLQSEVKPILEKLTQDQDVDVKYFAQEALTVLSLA
T2 sequence (Q9UIC8 whole entry): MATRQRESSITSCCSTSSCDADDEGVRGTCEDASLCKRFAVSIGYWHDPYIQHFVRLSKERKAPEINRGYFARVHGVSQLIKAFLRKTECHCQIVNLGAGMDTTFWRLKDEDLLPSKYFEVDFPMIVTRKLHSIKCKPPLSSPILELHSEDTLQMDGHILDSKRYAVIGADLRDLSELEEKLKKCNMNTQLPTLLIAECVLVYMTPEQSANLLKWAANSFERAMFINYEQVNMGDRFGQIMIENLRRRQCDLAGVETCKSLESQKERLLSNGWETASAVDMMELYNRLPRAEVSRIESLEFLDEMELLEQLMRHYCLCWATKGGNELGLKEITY

With `CCCCCCCCCCCCCCCCCCCCCC(=O)NCCc1c[nH]c2ccc(O)cc12` [Compound I-62, N-(2-(5-hydroxy-1H-indol-3-yl)ethyl)docosanamide], the IC50 is 10 to 100 µM on PP2A [1], 10 to 100 µM in data set [2], over 100 µM against PP2A [3] and 10 to 100 µM in data set [4]. Further, the “lowering of phosphorylated tau levels in the brain compared to control” value in the data set with phosphorylated Tau is reported as 40%.
In the case of `CN1CC=C(c2ccccc2)CC1` [MPTP, 1-methyl-4-phenyl-1,2,3,6-tetrahydropyridine, reference compound], the “reduction of tyrosine hydroxylase levels” value in data set [5] is given as 60%.
With `CN(CCOc1ccc(CC2SC(=O)NC2=O)cc1)c1ccccn1` (stereo not shown) [Rosiglitizone, reference compound], the “reduction in non-fasted blood glucose levels” value with Ob/Ob Mice worked out at 66%.
